Structures are written as SMILES.

In the assay the target is T1, Human recombinant CETP (Homo sapiens, UniProt P11597).
T1 construct: made in house; host or cells: CHO cells (serum-free conditioned medium)
T1 sequence (P11597 18-493): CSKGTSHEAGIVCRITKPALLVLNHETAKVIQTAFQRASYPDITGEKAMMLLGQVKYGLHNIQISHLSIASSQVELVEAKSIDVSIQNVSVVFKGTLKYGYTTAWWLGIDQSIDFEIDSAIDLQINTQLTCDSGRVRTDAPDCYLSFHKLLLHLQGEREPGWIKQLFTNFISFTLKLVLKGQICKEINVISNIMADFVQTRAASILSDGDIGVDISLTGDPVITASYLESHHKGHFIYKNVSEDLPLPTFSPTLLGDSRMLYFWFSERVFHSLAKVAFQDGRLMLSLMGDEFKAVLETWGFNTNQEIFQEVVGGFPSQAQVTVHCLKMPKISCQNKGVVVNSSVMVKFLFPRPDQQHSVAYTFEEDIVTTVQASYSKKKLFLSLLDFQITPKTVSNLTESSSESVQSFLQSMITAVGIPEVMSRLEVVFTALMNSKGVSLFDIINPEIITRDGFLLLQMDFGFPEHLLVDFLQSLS
Description: Assay of CETP Inhibition Using Purified Components (Reconstituted Buffer Assay). It is filed as biochemical. To be noted: transfer of [3H]CE from HDL to LDL; 2 hours at 37° C. How it is done: Assay of CETP Inhibition Using Purified Components (Reconstituted Buffer Assay)
The ability of compounds to inhibit CETP activity was assessed using an in vitro assay that measured the rate of transfer of radiolabeled cholesteryl ester ([^3H]CE) from HDL donor particles to LDL acceptor particles. Details of the assay are provided by Glenn, K. C. et al. (Glenn and Melton, “Quantification of Cholesteryl Ester Transfer Protein (CETP): A) CETP Activity and B) Immunochemical Assay of CETP Protein,” Meth. Enzymol., 263, 339-351 (1996)). Human recombinant CETP can be obtained from the serum-free conditioned medium of CHO cells transfected with a cDNA for CETP and purified as described by Wang, S. et al. (J. Biol. Chem. 267, 17487-17490 (1992)). To measure CETP activity, [^3H]CE-labeled-HDL, LDL, CETP and assay buffer (50 mM tris(hydroxymethyl)aminomethane, pH 7.4; 150 mM sodium chloride; 2 mM ethylenediamine-tetraacetic acid (EDTA); 1% bovine serum albumin) were incubated in a final volume of 200 μL, for 2 hours at 37° C. in 96 well plates. Inhibitors were included in the assay by diluting from a 10 mM DMSO stock solution into 16% (v/v) aqueous DMSO so that the final concentration of inhibitor was 800 μM. The inhibitors were then diluted 1:1 with CETP in assay buffer, and then 25 μL of that solution was mixed with 175 μL of lipoprotein pool for assay. Following incubation, LDL was differentially precipitated by the addition of 50 μL of 1% (w/v) dextran sulfate/0.5 M magnesium chloride, mixed by vortex, and incubated at room temperature for 10 minutes. A potion of the solution (200 μL) was transferred to a filter plate (Millipore). After filtration, the radioactivity present in the precipitated LDL was measured by liquid scintillation counting. […] The rate of [^3H]CE transfer using this assay was linear with respect to time and CETP concentration, up to 25-30% of [^3H]CE transferred.
This value was defined as the IC50.
`CC(O)CN(Cc1cccc(OC(F)(F)F)c1)Cc1cccc(OC(F)(F)F)c1` (stereo not shown) [compound 14]: the IC50 (as a rule, the concentration that inhibits the measured activity by half) was determined as 90 µM.

On to `CCCC(O)CN(Cc1cccc(OC(F)(F)F)c1)Cc1cccc(OC(F)(F)F)c1` (stereo not shown) [compound 11], for which the IC50 stood at 30 µM.

As for `FC(F)(F)Oc1cccc(CN(CCc2ccc(C(F)(F)F)cc2)c2cccc(Oc3ccccc3)c2)c1` [Example 27, N-[(3-phenoxy)phenyl]-N-[[(3-trifluoromethoxy)phenyl]methyl]-2-[(4-trifluoromethyl)phenyl]ethanamine], the IC50 is above 100 µM.

Regarding `OC(CN(Cc1cccc(OC(F)(F)C(F)F)c1)c1cccc(Oc2ccccc2)c1)c1ccccc1` (stereo not shown) [Example 10], the half-maximal inhibitory concentration (IC50) was 57 µM.

For `OC(COCc1ccco1)CN(Cc1cccc(OC(F)(F)F)c1)c1cccc(Oc2ccccc2)c1` (stereo not shown) [Example 7], the IC50 is above 100 µM.

As for `OC(COc1ccc(Cl)cc1)CN(Cc1cccc(OC(F)(F)F)c1)c1cccc(Oc2ccccc2)c1` (stereo not shown) [Example 6], the IC50 was above 100 µM.

With `OC(Cc1ccccc1)CN(Cc1cccc(OC(F)(F)F)c1)c1cccc(Oc2ccccc2)c1` (stereo not shown) [Example 5], the IC50 is above 50 µM.

On to `COCC(O)CN(Cc1cccc(OC(F)(F)F)c1)Cc1cccc(OC(F)(F)F)c1` (stereo not shown) [compound 13], for which the IC50 amounted to 80 µM.

Regarding `OC(COc1ccc(Cl)cc1)CN(Cc1cccc(OC(F)(F)F)c1)Cc1cccc(OC(F)(F)F)c1` (stereo not shown) [compound 18], the IC50 was above 100 µM.

For `C=CC(O)CN(Cc1cccc(OC(F)(F)F)c1)c1cccc(Oc2ccccc2)c1` (stereo not shown) [Example 4], the IC50 was above 50 µM.

On to `OCC(c1ccc(C(F)(F)F)cc1)N(Cc1cccc(OC(F)(F)F)c1)c1cccc(Oc2ccccc2)c1` (stereo not shown) [1B, 2-[(3-phenoxy)phenyl[[(3-trifluoromethoxy)phenyl]methyl]amino]-2-[(4-trifluoromethyl)phenyl]ethanol], for which the IC50 amounted to 6 µM.

For `O=C1c2ccccc2C(=O)N1CC(O)CN(Cc1cccc(OC(F)(F)F)c1)Cc1cccc(OC(F)(F)F)c1` (stereo not shown) [compound 20], the IC50 is above 100 µM.

For `OCC(c1cccc(C(F)(F)F)c1)N(Cc1cccc(OC(F)(F)F)c1)c1cccc(Oc2ccccc2)c1` (stereo not shown) [Example 8], the IC50 came to 7 µM.

Turning to `COc1ccc(OCC(O)CN(Cc2cccc(OC(F)(F)F)c2)Cc2cccc(OC(F)(F)F)c2)cc1` (stereo not shown) [compound 21], the IC50 was above 100 µM.

`OC(CN1CCOCC1)CN(Cc1cccc(OC(F)(F)F)c1)Cc1cccc(OC(F)(F)F)c1` (stereo not shown) [compound 19]: the IC50 is above 100 µM.

Regarding `COC(=O)C(C)(O)CN(Cc1cccc(OC(F)(F)F)c1)c1cccc(Oc2ccccc2)c1` (stereo not shown) [Example 9], the IC50 was found to be 24 µM.

In the case of `OC(CN(Cc1cccc(OC(F)(F)F)c1)c1cccc(Oc2ccccc2)c1)c1ccc(C(F)(F)F)cc1` (stereo not shown) [EX-1A, 2-[(3-phenoxy)phenyl[[(3-trifluoromethoxy)phenyl]methyl]amino]-1-[(4-trifluoromethyl)phenyl]ethanol], the IC50 came to 18 µM.

Turning to `OC1CCCCC1N(Cc1cccc(OC(F)(F)F)c1)c1cccc(Oc2ccccc2)c1` (stereo not shown) [Example 26], the IC50 is 15 µM.

On to `FC(CN(Cc1cccc(OC(F)(F)F)c1)c1cccc(Oc2ccccc2)c1)c1ccc(C(F)(F)F)cc1` (stereo not shown) [Example 28, N-[(3-phenoxy)phenyl]-N-[[(3-trifluoromethoxy)phenyl]methyl]-2-[(4-trifluoromethyl)phenyl]-2-fluoro-ethanamine], for which the IC50 was above 100 µM.

Regarding `CCCC(O)CN(Cc1cccc(OC(F)(F)F)c1)c1cccc(Oc2ccccc2)c1` (stereo not shown) [Example 2], the IC50 was 3.6 µM.

Take `OC(COc1ccccc1)CN(Cc1cccc(OC(F)(F)F)c1)Cc1cccc(OC(F)(F)F)c1` (stereo not shown) [compound 17]: the IC50 is above 100 µM.

For `OCC(O)CN(Cc1cccc(OC(F)(F)F)c1)Cc1cccc(OC(F)(F)F)c1` (stereo not shown) [compound 16], the IC50 was above 100 µM.

With `CCOC(=O)C(O)CN(Cc1cccc(OC(F)(F)F)c1)Cc1cccc(OC(F)(F)F)c1` (stereo not shown) [compound 15], the IC50 was above 100 µM.

As to `OC(Cc1ccccc1)CN(Cc1cccc(OC(F)(F)F)c1)Cc1cccc(OC(F)(F)F)c1` (stereo not shown) [compound 12], the IC50 was 14 µM.

With `OC(CN(Cc1cccc(OC(F)(F)F)c1)c1cccc(Oc2ccccc2)c1)c1ccccc1` (stereo not shown) [Example 3], the IC50 is 44 µM.

The values above are taken from US6861561B2, “Substituted aromatic policyclic tertiary-heteroalkylamines useful for inhibiting cholesteryl ester transfer protein activity” (G. D. Searle & Co., priority 1999, dated 2005).
